Patent US8021831B2, “Taxane chemosensitivity prediction test” (Board of Regents, The University of Texas System, priority 2003, dated 2011)

Experiments:
microtubule site = conditions: higher than paclitaxel, same microtubule site; cited from earlier work
[1] = tested on: Cdk1 activity in MCF-7 cells; test: Cdk1 kinase assay after paclitaxel treatment; assay type: cell-based, human; conditions: MCF-7 control cells; paclitaxel 100 nM; 24 hr after treatment
Description: Twenty-four hr after transfection, cells were treated with paclitaxel (100 nM) and harvested at the indicated times. FIG. 1D—Cyclin-dependent kinase-1 (Cdk1) activity after treatment with paclitaxel in each cell. Twenty-four hr after transfection, cells were treated with paclitaxel (100 nM) and harvested at the indicated times. Activity of Cdk1 in the lysates was determined as described in Experimental procedures.
Cdk1 kinase assay. The Cdk1 protein kinase assay was performed using the SignaTECT cdc2 protein assay system (Promega, Madison, Wis.). Briefly, the harvested cells were lysed with the extraction buffer (50 mM Tris [pH 7.4], 150 mM NaCl, 0.1% Triton X-100, and 1 mM EDTA) containing protease inhibitors (100 μg/ml aprotinin and 0.5 mM phenylmethane sulphonyl fluoride) and phosphatase inhibitors (50 mM NaF). These lysates were conjugated with a substrate consisting of cdc2-specific biotinylated peptide derived from histone H1 and [γ-^32P] ATP, and incubated at 30° C. for 10 min. […] After several washings, each captured membrane was placed into a separate vial and analyzed using a liquid scintillation counter (Beckman Coulter, Palo Alto, Calif.).
(§8) To test the effects of suppression of Mad2, BubR1, or both on the spindle assembly checkpoint activated by paclitaxel, the mitotic indices were determined and the Cdk1 activity measured, both of which reflect the status of this checkpoint.

[2] = tested on: advanced drug refractory ovarian cancer; conditions: advanced drug refractory ovarian cancer patients; cited from earlier work
MCF-7 cells [3] = test: Cell death analysis (trypan blue exclusion); assay type: cell-based, human; conditions: MCF-7 control cells, paclitaxel 100 nM, 48 hr
Description: FIG. 2B—MCF-7 cells transfected with siRNA/Mad2, BubR1, or both were examined for cell death induced by paclitaxel. Twenty-four hr after transfection, cells were treated with paclitaxel (100 nM) for 48 hr. Cell viability was assessed using trypan blue exclusion assay.
Cell death analysis. Cell death was evaluated using the trypan blue dye exclusion assay. Briefly, cells were harvested using trypsin and stained with 0.4% trypan blue dye (Sigma-Aldrich Chemical Co., St. Louis, Mo.). Trypan blue-positive and -negative cells were counted using a hemacytometer (Hausser Scientific, Horsham, Pa.) under a phase-contrast microscope (Fisher Scientific, Pittsburgh, Pa.). The results of each assay were expressed in terms of the percentage of dead cells relative to the total number of cells. Individual experiments were performed in triplicate.
Next, to determine whether these resistances were due to the reduction of cell death induced by paclitaxel, the inventors assessed the population of cell death using trypan blue exclusion.

[4] = tested on: resistant tumor (tumor of T47D); test: Tumor volume in tumor-bearing nude mice, resistant tumor; assay type: in vivo; conditions: 20 mg paclitaxel per day i.p., Days 34-38, until day 43
Description: (§1) FIG. 7. The susceptible and resistant cells (1×10^7 cells/mouse) were inoculated into nude mice. When the tumor volume reached more than 300 mm^3, 20 mg of Paclitaxel per day was intraperitoneally administered on five consecutive days (Days 34-38 after the inoculations). The tumor size was recorded on Days 20-43. […] By contrast, the volume of resistant tumor remained at 350 mm^3 until Day 43.
(§2) To further confirm the above in vitro results, an in vivo validation study was performed. The susceptible and resistant cells were inoculated into nude mice. When the tumor volume reached more than 300 mm^3, 20 mg of paclitaxel per day was intraperitoneally administered on five consecutive days (Days 34-38 after the inoculations). The tumor size was recorded on days 20-43. […] By contrast, volume of resistant tumors remained at 350 mm^3 until day 43.
as §1, with “The” for “FIG. 7. The”, “of paclitaxel” for “of Paclitaxel”, “on days” for “on Days”, “until day 43 (FIG. 7).” for “until Day 43.”

[5] = tested on: CDK1 in tumor of MDA-MB231; test: Cell cycle profiling of tumor tissue lysates, CDK1 specific activity; assay type: in vivo, nude mice; conditions: 24 hr after treatment
Description: (§3) FIG. 8. Lysates of the tumor tissues from tumor-bearing mice were subjected to cell cycle profiling. […] These are (A1) CDK1 specific activity 24 hr after treatment; (A2) CDK2 specific activity before treatment; (E5) MAD2 expression before treatment; (E3) Cyclin E expression before treatment; (E4) p21 expression before treatment; and (E1) CDK6 expression before treatment. The value plotted in the graph was calculated by dividing with the bigger raw value between two tumors on the each parameter.
(§4) Enzyme activity analyses of cell cycle profiling. Enzyme activity analyses of cell cycle profiling were performed using a non-radioisotopic method. Cell lysates were prepared as described for expression analysis. […] After three washes with washing buffer (0.1% NP-40, 50 mM Tris-Cl [pH 7.4]), 50 μl of the substrate mixture containing 10 μg of protein substrate, 5 mM adenosine 5′-O-(3-thiotriphosphate) (Sigma), 20 mM Tris-Cl (pH 7.4), and 0.1% Triton X-100 was added to the beads and incubated under continuous shaking at 37° C. for 10 min. Histone H1 (Upstate Biotechnology, Lake Placid, N.Y., USA) was used as the protein substrate for CDK1 and CDK2, and recombinant RB protein (amino acids 769-921) for CDK4 and CDK6. After the beads were removed, the introduced monothiophosphates in the substrate were further labeled by incubation with 10 mM iodoacetyl-biotin (Pierce) in coupling buffer (100 mM Tris-Cl [pH 8.5], 1 mM EDTA) for 90 min in the dark at room temperature. The reaction was quenched with β-mercaptoethanol, and 0.4 μg of the substrate was applied to the wells of the dot-blot device. The wells were blocked with 4% bovine serum albumin (BSA) for 30 min, then incubated with avidin-FITC (Vector) for 1 hr at 37° C.

CDK1 in tumor of T47D = test: as above; assay type: in vivo, nude mice; conditions: 24 hr after treatment
Description: as §3, §4

MCF-7 = test: Paclitaxel cytotoxicity test (MTT assay); assay type: cell-based, human; conditions: 1, 5, 10, 50 or 100 nM paclitaxel, 72 hr
Description: (§5) FIG. 5. Sensitivities of cell lines to Paclitaxel were judged according to a graph analysis of the Paclitaxel cytotoxicity test. […] The Paclitaxel cytotoxicity test was performed as follows. The cells were cultivated in wells of a 96-well culture plate in presence of 1, 5, 10, 50 or 100 nM Paclitaxel. After 72 hr cultivation, cell survival was measured by the MTT assay.
(§6) Drug sensitivity assays. Cells were detached by trypsinization, seeded at 2.0×10^3 cells/well in a 96-well microtiter plate, and treated with various concentrations of paclitaxel (1, 5, 10, 50, 100 and 1000 nM). Seventy-two hr later, the effects on cell growth were examined by 3-(4,5-dimethylthiazol-2-yl)-2,5-diphenyl tetrazolium bromide (MTT) assay: 20 μl of MTT solution (5 mg/ml in phosphate-buffered saline; Sigma Aldrich) was added to each well, and the cells were incubated for 4 hr at 37° C. The MTT-formazan formed by metabolically viable cells was dissolved in 100 μl of cell lysis buffer, and […] was monitored using a microplate at a wavelength of 570 nm. The percentage of cell growth was calculated by defining the absorption of cells not treated with paclitaxel (control) as 100%.
(§7) Sensitivities of four human breast cancer cell lines to paclitaxel were judged according to a graph analysis of the paclitaxel cytotoxicity test (FIG. 5). […] The paclitaxel cytotoxicity test was performed as follows. The cells were cultivated in wells of a 96-well culture plate in presence of 1, 5, 10, 50 or 100 nM paclitaxel. After 72 hr cultivation, cell survival was measured by the MTT assay.

T47D = test: Paclitaxel cytotoxicity test (MTT assay); assay type: cell-based, human; conditions: 1, 5, 10, 50 or 100 nM paclitaxel, 72 hr
Description: as §5, §6, §7

MDA-MB435 = test: Paclitaxel cytotoxicity test (MTT assay); assay type: cell-based, human; conditions: 1, 5, 10, 50 or 100 nM paclitaxel, 72 hr
Description: as §5, §6, §7

MDA-MB231 = test: Paclitaxel cytotoxicity test (MTT assay); assay type: cell-based, human; conditions: 1, 5, 10, 50 or 100 nM paclitaxel, 72 hr
Description: as §5, §6, §7

various lung cancers = conditions: patients; cited from earlier work
[6] = tested on: susceptible tumor (tumor of MDA-MB231); test: Tumor volume in tumor-bearing nude mice, susceptible tumor; assay type: in vivo; conditions: 20 mg paclitaxel per day i.p.
Description: as §1, §2
as §1, with “The” for “FIG. 7. The”, “of paclitaxel” for “of Paclitaxel”, “on days” for “on Days”, “until day 43 (FIG. 7).” for “until Day 43.”

[7] = tested on: previously treated metastatic breast cancer; conditions: previously treated metastatic breast cancer patients; cited from earlier work
MCF-7 cells [8] = test: Mitotic indices after paclitaxel treatment; assay type: cell-based, human; conditions: MCF-7 control (siRNA/control) cells; paclitaxel 100 nM; 24 hr after treatment
Description: FIG. 1C—Mitotic indices of each cell after treatment with paclitaxel. Twenty-four hr after transfection, cells were treated with paclitaxel (100 nM) and harvested at the indicated times.
Calculation of mitotic indices. Cells with mitotic condensed chromatin were visualized by staining with 10 μM Hoechst 33342 dye (Aventis Pharmaceuticals Inc., Bridgewater, N.J.) in conjunction with 10 μg/ml propidium iodide; the propidium iodide was incorporated into dead cells only. […] The cells were harvested at 12, 24, and 36 hr after transfection and the mitotic indices calculated.
as §8

Compound	affinity for the microtubule site relative to paclitaxel (microtubule site) [fold]	Cdk1 activity [1]	Response rate [2]	levels of cell death (MCF-7 cells [3])	tumor volume remained at [4] [mm^3]	CDK1 specific activity (A1), divided by the bigger raw value [5]	CDK1 specific activity (A1), raw value [5]	CDK1 specific activity (A1), divided by the bigger raw value (CDK1 in tumor of T47D)	CDK1 specific activity (A1), raw value (CDK1 in tumor of T47D)	Sensitivity of cell line to paclitaxel (judged by graph analysis of cytotoxicity test) (MCF-7)	Sensitivity of cell line to paclitaxel (judged by graph analysis of cytotoxicity test) (T47D)	Sensitivity of cell line to paclitaxel (judged by graph analysis of cytotoxicity test) (MDA-MB435)	Sensitivity of cell line to paclitaxel (judged by graph analysis of cytotoxicity test) (MDA-MB231)	Response rate (various lung cancers)	tumor volume before decrease (start value) ([6]; Days 34-38) [mm^3]	tumor volume after decrease (end value) ([6]; Days 34-38, recorded to day 43) [mm^3]	Response rate [7]	control cells arrested at mitosis (MCF-7 cells [8])
CC(=O)O[C@@]12CO[C@@H]1C[C@H](O)[C@@]1(C)C(=O)[C@H](O)C3=C(C)[C@@H](OC(=O)[C@H](O)[C@@H](NC(=O)OC(C)(C)C)c4ccccc4)C[C@@](O)([C@@H](OC(=O)c4ccccc4)[C@H]21)C3(C)C [docetaxel, (2R,3S)-N-carboxy-3-phenylisoserine, N-tert-butyl ester, 13-ester with 5b-20-epoxy-12a,4,7b,10b,13a-hexahydroxytax-11-en-9-one 4-acetate 2-benzoate, trihydrate]	1.9	–	–	–	–	–	–	–	–	–	–	–	–	–	–	–	–	–
CC(=O)O[C@H]1C(=O)[C@@]2(C)[C@H]([C@H](OC(=O)c3ccccc3)[C@]3(O)C[C@H](OC(=O)[C@H](O)[C@@H](NC(=O)c4ccccc4)c4ccccc4)C(C)=C1C3(C)C)[C@]1(OC(C)=O)CO[C@@H]1C[C@@H]2O [paclitaxel]	–	dramatic increase	19-36%	high	350	1.0	3.0 mU/ng of CDK1	0.067	0.2 mU/ng of CDK1	resistant	resistant	susceptible	susceptible	21-37%	460	120	27-62%	at least 80%
